Entries after “also recorded” stand apart in the source; their conditions may differ.

One data set addresses SIK3 (Homo sapiens (Human), UniProt Q9Y2K2). Briefly: In vitro SIK3 kinase assay. It is filed as biochemical. The method, then:
(§1) Assays were performed in base reaction buffer (20 mM Hepes (pH 7.5), 10 mM MgCl2, 1 mM EGTA, 0.02% Brij35, 0.02 mg/mL BSA, 0.1 mM Na3VO4, 2 mM DTT, 1% DMSO). Compounds were dissolved in 100% DMSO in a 10 mM stock. […] Assays were performed for 20 minutes at room temperature, after which time ^33P-ATP (10 μCi/μL) was added followed by incubation for another 120 minutes at room temperature. Thereafter, radioactivity incorporated into the pEY peptide substrate was detected by filter-binding method. Kinase activity data were expressed as the percent remaining kinase activity in test samples compared to DMSO reactions. IC50 values and curve fits were obtained using Prism (GraphPad Software).

Data set [1] deals with NanoLuc-SIK2 fusion in HEK293 cells (Homo sapiens (Human), UniProt Q9H0K1). Kind of data set: cell-based. The conditions noted are these: HEK293 cells, compounds for 60 minutes; read-out: SIK2 NanoBRET. As for the experimental part: Assays were performed at Reaction Biology Corporation (Malvern, PA) in HEK293 cells from ATCC in 384 well plate format using Promega's NanoBRET TE intracellular kinase assay platform. HEK293 cells transiently expressing NanoLuc-SIK2 fusion vector were seeded into 384 well plates. Cells were pre-treated with the NanoBRET Tracer K-4 and then treated with compounds for 60 minutes in 10 point dose response format. […] IC50 values were calculated and IC50 curves were plotted using the GraphPad Prism 4 program on a sigmoidal dose response equation.
Chain of NanoLuc-SIK2 fusion in HEK293 cells (Q9H0K1 whole entry, the tested form may be a part): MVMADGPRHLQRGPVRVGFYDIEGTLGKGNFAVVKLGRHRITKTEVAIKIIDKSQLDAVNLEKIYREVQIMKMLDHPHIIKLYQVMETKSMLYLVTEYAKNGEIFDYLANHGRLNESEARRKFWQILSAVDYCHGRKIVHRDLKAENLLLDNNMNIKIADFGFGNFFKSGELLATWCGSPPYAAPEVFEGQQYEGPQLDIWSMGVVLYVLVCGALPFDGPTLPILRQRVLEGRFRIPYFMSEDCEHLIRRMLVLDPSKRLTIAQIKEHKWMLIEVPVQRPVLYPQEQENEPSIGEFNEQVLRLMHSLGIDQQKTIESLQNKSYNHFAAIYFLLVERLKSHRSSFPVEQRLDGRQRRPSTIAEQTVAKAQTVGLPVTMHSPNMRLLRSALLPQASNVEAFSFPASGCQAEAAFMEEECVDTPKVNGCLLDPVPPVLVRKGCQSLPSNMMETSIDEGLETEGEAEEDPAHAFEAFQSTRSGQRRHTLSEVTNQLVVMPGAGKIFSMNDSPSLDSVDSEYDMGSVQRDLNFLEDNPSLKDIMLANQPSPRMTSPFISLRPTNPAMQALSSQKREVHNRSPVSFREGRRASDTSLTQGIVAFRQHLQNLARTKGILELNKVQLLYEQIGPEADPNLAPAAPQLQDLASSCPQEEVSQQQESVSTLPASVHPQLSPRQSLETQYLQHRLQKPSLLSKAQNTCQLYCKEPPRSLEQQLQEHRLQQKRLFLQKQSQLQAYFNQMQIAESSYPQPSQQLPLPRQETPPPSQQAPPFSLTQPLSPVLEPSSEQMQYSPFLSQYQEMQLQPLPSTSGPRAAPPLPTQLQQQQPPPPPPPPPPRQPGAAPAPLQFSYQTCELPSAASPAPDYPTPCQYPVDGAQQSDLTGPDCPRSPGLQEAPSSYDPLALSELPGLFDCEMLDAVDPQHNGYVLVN
On the technique in general: BRET reads energy transfer from a luciferase to a nearby fluorophore.

Another data set concerns RANKL. Kind of data set: RANKL gene expression in Ocy454 cells (RT-qPCR).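 Further: Ocy454 cells moved to 37 °C for osteocytic differentiation before compound exposure, RANKL mRNA by SYBR Green qRT-PCR, 2^−ΔΔCT with β-actin normalization, duplicate wells.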 As to conditions: maximal RANKL fold induction versus DMSO, four hours.
The next data set deals with SIK1 (Homo sapiens (Human), UniProt P57059). Briefly: In vitro SIK1 kinase assay. It is filed as biochemical. The method, then:
as §1

Another data set addresses Recombinant SIK2 (Homo sapiens (Human), UniProt Q9H0K1). Kind of data set: biochemical. As to conditions: recombinant SIK2 2.5 nM, 1 μM ATP; read-out: SIK2 IC50.
A further data set relates to CRTC2 (TORC2). Briefly: CRTC2 nuclear translocation (PathHunter U2OS). It counts as cell-based. As to conditions: maximal CRTC2 nuclear translocation, U2OS cells, 90 minutes, maximum dose 10 μM. Put shortly:
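U2OS enzyme-fragment complementation cells (ED-tagged CRTC2, EA-tagged nuclear TAZ domain) treated 90 minutes, duplicate 5-point 4-fold dilutions from 10 μM. Chemiluminescent substrate signal; maximal translocation expressed as percent of forskolin-stimulated signal.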

In data set [2] the test system is 12 week old female C57B6 mice, sham or OVX. Briefly: Ovariectomy (OVX) mouse model of post-menopausal osteoporosis. It is filed as in vivo. The source says: Recent reports have described the signaling pathway used by PTH in target cells in bone (see e.g., Wein et al, Nature Communications, 2016, 7:13176; Wein et al, Trends Endocrinol Metab. 2018; and Nishimori et al, J. Clin. Invest. 2019). One step in this cascade is that PTH signaling leads to PKA-dependent inhibition of salt inducible kinases (SIKs). Small molecule SIK inhibitors, such as YKL-05-099 (see e.g., Sundberg et al, ACS chemical biology, 2016; and Tarumoto et al, Blood, 2019), a tool compound that inhibits all 3 SIK isoforms, mimic the actions of PTH (see e.g., Wein et al, Nature Communications, 2016, 7:13176). The efficacy of YKL-05-099 has been tested in mice rendered hypo-gonadal by surgical removal of the ovaries, a model of post-menopausal osteoporosis. […] Therefore, mice were generated where SIK2/3 can be deleted ubiquitously in a tamoxifen-dependent manner to assess the safety and skeletal efficacy of selective SIK2/3 deletion in adult animals.

The mark [3] stands for this setting: mice, YKL-05-099 18 mg/kg once daily for 4 weeks.

Chain of Recombinant SIK2 (Q9H0K1 whole entry): as the sequence (Q9H0K1 whole entry, the tested form may be a part) above
Chain of SIK1 (P57059 whole entry): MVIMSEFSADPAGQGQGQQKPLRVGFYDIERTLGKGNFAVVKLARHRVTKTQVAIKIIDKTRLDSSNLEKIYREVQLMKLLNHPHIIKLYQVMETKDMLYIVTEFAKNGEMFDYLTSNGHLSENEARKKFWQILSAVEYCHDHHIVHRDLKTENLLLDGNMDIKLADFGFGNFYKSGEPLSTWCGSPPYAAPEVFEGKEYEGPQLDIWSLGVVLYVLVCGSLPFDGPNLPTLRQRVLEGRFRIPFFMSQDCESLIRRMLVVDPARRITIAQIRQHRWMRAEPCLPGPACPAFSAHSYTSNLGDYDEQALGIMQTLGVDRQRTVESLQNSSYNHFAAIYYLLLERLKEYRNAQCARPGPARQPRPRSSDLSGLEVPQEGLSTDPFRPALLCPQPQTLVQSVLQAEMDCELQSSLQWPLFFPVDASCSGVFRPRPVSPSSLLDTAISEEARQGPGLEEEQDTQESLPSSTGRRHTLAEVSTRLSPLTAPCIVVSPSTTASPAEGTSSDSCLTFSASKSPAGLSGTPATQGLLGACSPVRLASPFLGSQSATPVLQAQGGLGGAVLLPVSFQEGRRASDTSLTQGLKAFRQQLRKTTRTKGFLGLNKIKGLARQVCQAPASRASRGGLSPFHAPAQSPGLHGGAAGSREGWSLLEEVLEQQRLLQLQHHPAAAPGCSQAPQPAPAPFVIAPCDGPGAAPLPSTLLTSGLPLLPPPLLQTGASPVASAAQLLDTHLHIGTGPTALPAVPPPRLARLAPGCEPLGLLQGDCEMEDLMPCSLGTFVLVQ
Chain of SIK3 (Q9Y2K2 whole entry): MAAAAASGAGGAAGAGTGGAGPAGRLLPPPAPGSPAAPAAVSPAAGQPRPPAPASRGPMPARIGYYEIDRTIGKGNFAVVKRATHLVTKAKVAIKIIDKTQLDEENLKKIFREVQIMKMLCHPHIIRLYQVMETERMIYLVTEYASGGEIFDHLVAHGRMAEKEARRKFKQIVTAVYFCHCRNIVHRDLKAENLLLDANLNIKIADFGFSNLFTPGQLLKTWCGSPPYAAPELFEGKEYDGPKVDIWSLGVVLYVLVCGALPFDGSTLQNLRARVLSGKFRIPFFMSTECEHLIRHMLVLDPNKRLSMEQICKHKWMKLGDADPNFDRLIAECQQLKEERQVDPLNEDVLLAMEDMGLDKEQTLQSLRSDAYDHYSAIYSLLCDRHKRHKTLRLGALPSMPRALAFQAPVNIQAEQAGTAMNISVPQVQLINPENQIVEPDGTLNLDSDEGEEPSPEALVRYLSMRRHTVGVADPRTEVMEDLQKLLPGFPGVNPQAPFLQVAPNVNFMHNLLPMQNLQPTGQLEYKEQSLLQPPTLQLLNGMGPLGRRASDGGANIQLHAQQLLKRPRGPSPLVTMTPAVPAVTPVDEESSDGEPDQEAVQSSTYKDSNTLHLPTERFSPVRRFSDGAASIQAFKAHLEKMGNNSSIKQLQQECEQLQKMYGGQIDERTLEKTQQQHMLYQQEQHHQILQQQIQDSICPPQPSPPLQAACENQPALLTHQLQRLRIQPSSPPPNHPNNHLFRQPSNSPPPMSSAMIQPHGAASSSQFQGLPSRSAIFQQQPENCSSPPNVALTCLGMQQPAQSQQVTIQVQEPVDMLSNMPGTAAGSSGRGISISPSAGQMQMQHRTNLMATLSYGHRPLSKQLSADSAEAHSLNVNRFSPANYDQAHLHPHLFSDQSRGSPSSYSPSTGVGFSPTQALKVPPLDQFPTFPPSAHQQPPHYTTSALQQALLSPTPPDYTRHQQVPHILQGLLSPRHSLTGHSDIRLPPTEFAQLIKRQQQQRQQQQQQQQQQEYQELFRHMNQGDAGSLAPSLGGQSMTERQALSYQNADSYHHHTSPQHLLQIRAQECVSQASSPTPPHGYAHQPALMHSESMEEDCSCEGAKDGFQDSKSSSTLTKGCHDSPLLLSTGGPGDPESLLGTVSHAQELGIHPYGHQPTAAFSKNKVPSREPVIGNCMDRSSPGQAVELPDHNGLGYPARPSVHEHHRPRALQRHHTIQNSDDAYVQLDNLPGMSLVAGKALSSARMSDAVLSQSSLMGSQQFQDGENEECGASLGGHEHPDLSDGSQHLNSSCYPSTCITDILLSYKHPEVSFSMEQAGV

Turning to `N#Cc1ccc(-c2cnc3cc(-c4cnn(C5CC5)c4)ccn23)cc1` [Example 49, 4-(7-(1-cyclopropyl-1H-pyrazol-4-yl)imidazo[1,2-a]pyridin-3-yl)benzonitrile], the IC50 against SIK3 was determined as 1.43 nM; in data set [1], 1.36 nM; against SIK1, 2.16 nM; on Recombinant SIK2 it was 0.101 nM. Besides, the “RANKL Fold Induction” value with RANKL was 6.31 fold. The “CRTC2 Efficacy (% of forskolin)” value in the data set with CRTC2 (TORC2) is on record as 92.2 % of forskolin.
`COc1ccc(N2C(=O)N(c3c(C)cccc3Cl)Cc3cnc(Nc4ccc(C5CCN(C)CC5)cc4OC)nc32)nc1` [YKL-05-099]: in data set [2] (OVX mice, once daily for 4 weeks, PTH 100 mcg/d, YKL-05-099 18 mg/kg), the “bone density / bone mass and bone formation” value was “comparable/superior efficacy; also recorded: increase bone density and bone formation rate”. Also, in data set [2] (setting [3]), the “BUN levels / renal function” value is reported as “impaired renal function; also recorded: increased” and the fasting glucose entry is “hyper-glycemia; also recorded: increased”.
